# Assay results: patent US11213522B2, “Autoimmune-induced glutamatergic receptor dysfunction methods and treatments” (SARAH HERZOG MEMORIAL HOSPITAL EZRAT NASHIM ASSOCIATION, priority 2013, dated 2022)
# Experiments:
# [1] = test system: patient positive for anti-NR1 NMDAR antibodies; test: Quality of Life Scale (QLS), D-serine clinical trial; type: in vivo, human; settings: for QLS Symptoms/side-effects: week 0 score 15.63; for QLS Motivation/energy: week 0 score 42.86; for QLS Psychosocial: week 0 score 60
# Excerpt: Out of the seventeen patients that entered the study, the serum of one patient was strongly positive at both serum sample dilutions for the presence of both IgG and IgM classes of anti-NR1 NMDAR antibodies. The patient was a single person having a diagnosis of schizophrenia according to DSM-IV-R criteria (American Psychiatric Association, 2000 Diagnostic and Statistical Manual of Mental Disorders-(DSM-IV-TR), 4th edition. American Psychiatric Association Washington D.C. (Text Revision)). There was no history of mental disorder in the patient's family. The patient had completed post-high school studies and had worked as a secretary. After a period of continuous headaches, for which no organic basis had been found, they had abruptly developed an acute psychosis characterized by grandiose and paranoid delusions, mystical thinking, […] affect and agitation, They had been hospitalized in a psychiatric hospital and underwent treatment with antipsychotic drugs and electroconvulsive therapy with only partial response. The patient had never returned to their previous functional and except for short attempts at living in the community, has been hospitalized ever since. They have been refractory to treatment with various classes of antipsychotic drugs, was not diagnosed with any medical or neurological disorder and was maintained on sulpiride 50 mg/day, citalopram 40 mg/day, lorazepam 1 mg/day and promethazine 50 mg/day. […] DSR is a naturally occurring amino acid that acts in vivo as an obligatory co-agonist at the glycine modulatory site associated with NMDAR. […] Both acute and chronic administration of 1-2 g DSR in humans is known to result in ≥100 times increases in DSR serum levels (Kantrowitz et al., 2010, Schizophr Res121:125-30; Heresco-Levy et al., 2005, Biol Psychiatry 57:577-85). The trial consisted of two periods, starting with a 2 week lead-in/stabilization period (-2-0) following which the patient was entered in the second period of the study which consisted of a 6 week (0-6), open-label, fixed dose therapy phase. During this phase, the patient received adjuvant treatment with DSR, whose dose was increased from 1500 mg/day (week 1) to 2000 mg/day (weeks 2 and 3) to 3000 mg/day (weeks 4 and 5) and to 4000 mg/day (week 6). The doses of the ongoing medication received by the patient remained fixed throughout the study and no changes in medication were performed. The assessment procedures used in the study included clinical and neurocognitive examinations. Motor and psychiatric symptoms as well as side-effects were rated biweekly throughout the study. The following instruments were used: 1) Positive and Negative Syndrome Scale (PANSS) (Kay et al., 1987, Positive and Negative Syndrome Scale (PANSS) rating manual. San Rafael California: Social and Behavioral Sciences Documents); 2) Quality of Life Scale (QLS) (Wilkinson et al., 2000, Self-report quality of life measure for people with schizophrenia: the SQLS. Br J Psychiatry 177:42-6); 3) Abnormal Involuntary Movement Scale (AIMS) (Guy, 1976, ECDEU Assessment Manual for Psychopharmacology-Revised. Rockville, Md.: US Dept. of Health, Education and Welfare); 4) Simpson Angus Scale for Extrapyramidal Symptoms (SAS) (Simpson and Angus, 1970, Acta Psychiatr Scand Suppl. 212:11-9); and 5) Udvalg for […] Undersogelser (UKU) Side Effect Rating Scale (Lingjaerde, et al., 1987 Acta Psychiatr Scand Suppl 334:1-100). In conjunction with UKU ratings, patient's vital signs and body weight were monitored throughout the study.
# [2] = test system: patient positive for anti-NR1 NMDAR antibodies; test: Time Wall; type: in vivo, human; settings: post-6 weeks D-serine
# Procedure: The trial consisted of two periods, starting with a 2 week lead-in/stabilization period (−2-0) following which the patient was entered in the second period of the study which consisted of a 6 week (0-6), open-label, fixed dose therapy phase. During this phase, the patient received adjuvant treatment with DSR, whose dose was increased from 1500 mg/day (week 1) to 2000 mg/day (weeks 2 and 3) to 3000 mg/day (weeks 4 and 5) and to 4000 mg/day (week 6). The doses of the ongoing medication received by the patient remained fixed throughout the study and no changes in medication were performed.
# In addition, cognitive performance was assessed pre- and post DSR treatment. For this purpose, a 1.5-hour neurocognitive assessment battery (nine computerized and two paper/pencil tests) was employed that measures accuracy and speed of performance in major cognition domains, including attention/vigilance, planning, short-term and working memory, decision making, abstraction and mental flexibility. All the tests were formatted like games and puzzles, and were administered to the patient as part of the comprehensive neuropsychiatric assessment at baseline and the end of study. […]
structure (smiles),measurement,setting,value
N[C@H](CO)C(=O)O [D-serine],Quality of life of the patient,[1]; during treatment with DSR,improved considerably
same,Reduction in reported symptoms and side effects (QLS),[1]; end of the 6 week treatment period vs baseline,~3 times
same,QLS Symptoms/side-effects,[1]; study week 2,9.38
same,QLS Motivation/energy,[1]; study week 2,42.86
same,QLS Psychosocial,[1]; study week 2 of adjuvant D-serine,55
same,QLS Symptoms/side-effects,[1]; study week 4,9.38
same,QLS Motivation/energy,[1]; study week 4,42.86
same,QLS Psychosocial,[1]; study week 4 of adjuvant D-serine,50
same,QLS Symptoms/side-effects,[1]; study week 6,3.13
same,QLS Motivation/energy,[1]; study week 6,42.86
same,QLS Psychosocial,[1]; study week 6 of adjuvant D-serine,38.33
same,"Time Wall accuracy score, mean ± SD",[2]; pre-treatment 0.056 ± 0.053,0.077 ± 0.051
same,"Time Wall correctly estimated trials, total (0-20)",[2]; pre-treatment 12,6
